Measurements: patent US20250381269A1, “BISPECIFIC ANTIBODY BINDING EGFR AND B7-H3” (FORTVITA BIOLOGICS (SINGAPORE) PTE. LTD., priority 2022, published 2025)

How the values were obtained:
H322 = assay: Proliferation inhibition experiment, H322 (NSCLC); format: cell-based; details: EGFR WT, KRAS WT
Protocol: • (1) NSCLC: plated at 1500-2500 cells/100 μL in a 96-well low-adsorption plate (Corning, CLS7007-24EA) for 3D cell culture, in which the following cell lines and specific amounts were used: • NSCLC: 2000 cells/100 μL/well • NCI-H292: Cell Bank of the Chinese Academy of Sciences, SCSP-582 • NCI-H322: Cobioer, CBP60134 • NCI-H1650: ATCC, CRL-5883 • NCI-H1975: ATCC, CRL-5908 • SK-MES-1: CoBioer, CBP60152 • NCI-H1703: ATCC, HTB-43 • PC9+hB7H3: constructed as described above • CRC and HNSCC: plated at 1500-2000 cells/100 μL in a 96-well white-bottom plate (NUNC, 136101) for 2D cell culture, in which the following cell lines and specific amounts were used: • CRC: 1500 cells/100 μL/well • CCK-81: CoBioer, CBP60581 • HT-55: CoBioer, CBP60012 • H508: CoBioer, CBP60795 • LS180: CoBioer, CBP60034 • HNSCC: 1500 cells/100 μL/well • TE-1: CoBioer, CBP60655 • Colo680: CoBioer, CBP60452. (2) The antibody molecules prepared in advance by dilution were added to the corresponding cell well plate, mixed well, and cultured in an incubator at 37° C. with 5% CO2 for 5 days. • (3) After 5 days of continuous culture for proliferation inhibition assay, the Cell-Titer reagent (Promega, G7572) prepared in advance was added to cell wells, the plate was left to stand at room temperature for 15-25 min in the dark, and then CRC and HNSCC cells were directly detected by a multimode microplate reader (Molecular Devices, Spectra MAXi3). • (4) NSCLC: Cell-Titer and the cell mixture were transferred to a 96-well white-bottom plate (NUNC, 136101) and detected by a multimode microplate reader (Molecular Devices, Spectra MAXi3).

LS180 = assay: Proliferation inhibition experiment, LS180 (CRC); format: cell-based; details: EGFR R521K, KRAS G12D
Protocol: • (1) NSCLC: plated at 1500-2500 cells/100 μL in a 96-well low-adsorption plate (Corning, CLS7007-24EA) for 3D cell culture, in which the following cell lines and specific amounts were used: • NSCLC: 2000 cells/100 μL/well • NCI-H292: Cell Bank of the Chinese Academy of Sciences, SCSP-582 • NCI-H322: Cobioer, CBP60134 • NCI-H1650: ATCC, CRL-5883 • NCI-H1975: ATCC, CRL-5908 • SK-MES-1: CoBioer, CBP60152 • NCI-H1703: ATCC, HTB-43 • PC9+hB7H3: constructed as described above • CRC and HNSCC: plated at 1500-2000 cells/100 μL in a 96-well white-bottom plate (NUNC, 136101) for 2D cell culture, in which the following cell lines and specific amounts were used: • CRC: 1500 cells/100 μL/well • CCK-81: CoBioer, CBP60581 • HT-55: CoBioer, CBP60012 • H508: CoBioer, CBP60795 • LS180: CoBioer, CBP60034 • HNSCC: 1500 cells/100 μL/well • TE-1: CoBioer, CBP60655 • Colo680: CoBioer, CBP60452. […]

H1703 = format: cell-based, human; details: EGFR Amplification, KRAS WT, huPBMC:target 50:1, 8 h, LDH
Protocol: • (1) A CTS medium (Gibco, A3021002) was preheated at 37° C. huPBMC (Miaotong Biotechnology, PB 100C-W) was quickly thawed in a water bath, and then the cells were added slowly to 8 mL of CTS medium (containing 1% DNase). • (2) The mixture was centrifuged at 300 g for 8 min. The supernatant was removed, and the cells were resuspended in 30 mL of CTS (containing 10 μL of DNase), transferred to a T75 flask, and incubated in an incubator at 37° C. overnight. • (3) The suspension cells cultured overnight were taken and centrifuged at 300 g for 8 min. The supernatant was removed, and the cell density was adjusted with CTS. According to an effector/target ratio of effector cells (huPBMCs) to target cells (tumor cells in Table 5) of 50:1, huPBMCs and the tumor cells prepared in advance (Target: huPBMC=1.5E4/7.5E5 cells/well/100 μL) were plated in a 96-well low-adsorption plate (Corning. CLS7007-24EA). • (4) The diluted antibody drug was added to the corresponding cell well plate and cultured at 37° C. with 5% CO2 for 8 h. • (5) The mixture was centrifuged at 300 g for 5 min. 50 μL of the supernatant was transferred to a 96-well transparent flat-bottom plate ((NUNC, 136101), 50 μL of the LDH reagent (Promega, G1780) prepared in advance was added to the corresponding well plate, and the plate was left to stand at room temperature for 15-30 min in the dark. • (6) 50 μL LDH stop solution (Promega, G1780) was taken and detected by a multimode microplate reader (Molecular Devices, Spectra MAXi3) at 490 nm for readings.

Substance	Max inhibition (%) Mean ± SD (H322) [%]	IC50 (H322; 3D culture, 5 days) [nM]	Max inhibition (%) Mean ± SD (LS180) [%]	EC50 (H1703) [nM]
amivantamab [JNJ372]	38.2 ± 6.7	8.06		
zalutumumab [Zalu mAb]	39.9 ± 0.8		41.0 ± 2.2	0.007
